According to the supplement of paper PMC10307832:

Experiments:
Test in all cases: relative viability (nuclei count vs DMSO), 5 days (fraction); higher = more cells survive
4EGI-1 + Linsitinib = compound: O=C(O)C(Cc1ccccc1[N+](=O)[O-])=NNc1nc(-c2ccc(Cl)c(Cl)c2)cs1 (mixture of isomers) [4EGI-1] + C[C@]1(O)C[C@@H](c2nc(-c3ccc4ccc(-c5ccccc5)nc4c3)c3c(N)nccn32)C1 [Linsitinib] (partner 1 µM)
Procedure, shortened: (§1)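 Each reported value is a median over duplicate plates. It expresses relative viability: treated-well nuclei count divided by vehicle-well nuclei count. Lung cancer cell lines in 1536-well plates were dosed by pin tool a day after seeding, alone with one drug or with a fixed anchor-drug dose plus five library-drug doses (not always all listed) in √10 steps, and nuclei were counted after 5 days.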

XMD8-85 + Navitoclax = compound: CN1CCN(CC1)C2=CC(=C(C=C2)NC3=NC=C4C(=N3)N(C5=CC=CC=C5C(=O)N4C)C)OC [XMD8-85] + CC1(C)CCC(c2ccc(Cl)cc2)=C(CN2CCN(c3ccc(C(=O)NS(=O)(=O)c4ccc(N[C@H](CCN5CCOCC5)CSc5ccccc5)c(S(=O)(=O)C(F)(F)F)c4)cc3)CC2)C1 [Navitoclax] (partner 0.5 µM)
Procedure, shortened: as §1

4EGI-1 + Crizotinib = compound: O=C(O)C(Cc1ccccc1[N+](=O)[O-])=NNc1nc(-c2ccc(Cl)c(Cl)c2)cs1 (mixture of isomers) [4EGI-1] + C[C@@H](Oc1cc(-c2cnn(C3CCNCC3)c2)cnc1N)c1c(Cl)ccc(F)c1Cl [Crizotinib] (partner 1 µM)
Procedure, shortened: as §1

XMD8-85 + Palbociclib = compound: CN1CCN(CC1)C2=CC(=C(C=C2)NC3=NC=C4C(=N3)N(C5=CC=CC=C5C(=O)N4C)C)OC [XMD8-85] + CC(=O)c1c(C)c2cnc(Nc3ccc(N4CCNCC4)cn3)nc2n(C2CCCC2)c1=O [Palbociclib] (partner 0.5 µM)
Procedure, shortened: as §1

Cell Line	relative viability (4EGI-1 + Linsitinib; first compound 0.5 µM)	relative viability (4EGI-1 + Linsitinib; first compound 5 µM)	relative viability (4EGI-1 + Linsitinib; first compound 15.81 µM)	relative viability (4EGI-1 + Linsitinib; first compound 50 µM)	relative viability (XMD8-85 + Navitoclax; first compound 0.08 µM)	relative viability (XMD8-85 + Navitoclax; first compound 0.253 µM)	relative viability (XMD8-85 + Navitoclax; first compound 0.8 µM)	relative viability (XMD8-85 + Navitoclax; first compound 2.53 µM)	relative viability (XMD8-85 + Navitoclax; first compound 8 µM)	relative viability (4EGI-1 + Crizotinib; first compound 0.5 µM)	relative viability (4EGI-1 + Crizotinib; first compound 5 µM)	relative viability (4EGI-1 + Crizotinib; first compound 15.81 µM)	relative viability (4EGI-1 + Crizotinib; first compound 50 µM)	relative viability (XMD8-85 + Palbociclib; first compound 0.08 µM)	relative viability (XMD8-85 + Palbociclib; first compound 0.253 µM)	relative viability (XMD8-85 + Palbociclib; first compound 0.8 µM)	relative viability (XMD8-85 + Palbociclib; first compound 2.53 µM)	relative viability (XMD8-85 + Palbociclib; first compound 8 µM)	relative viability (4EGI-1 + Linsitinib; first compound 1.581 µM)	relative viability (4EGI-1 + Crizotinib; first compound 1.581 µM)
LU99A	0.593	0.651	0.524	0.401	0.857	0.689	0.888	0.892	0.44	0.657	0.677	0.463	0.215	0.367	0.36	0.458	0.46	0.368	–	–
NCI-H1993	0.754	0.737	0.699	0.706	0.848	–	0.885	0.968	0.766	0.943	0.92	0.629	0.688	0.564	0.595	0.612	0.692	0.61	0.757	0.776
NCI-H441	0.77	0.798	0.469	0.196	0.664	0.565	1.01	1.11	0.278	0.968	0.72	0.461	0.213	0.206	0.209	0.197	0.195	0.2	0.492	0.472
NCI-H1666	0.804	0.778	0.583	0.291	0.932	1	0.865	0.729	0.727	1.12	1.19	0.632	0.253	0.679	0.656	0.606	0.632	0.645	0.771	1.03
NCI-H2023	0.75	0.562	0.388	0.135	0.924	1.08	1.13	0.997	–	0.766	0.637	0.442	0.302	0.368	0.441	0.334	0.411	0.246	–	–
NCI-H322M	0.885	0.947	0.798	0.891	1.21	1.1	1.34	1.2	1.05	0.947	1.02	0.823	1.02	0.466	0.447	0.457	0.444	0.431	0.929	0.815
NCI-H838	1.19	1.02	0.854	0.434	1.15	1.13	1.16	1.15	0.536	0.843	0.905	0.706	0.378	0.224	0.197	0.227	0.251	0.184	–	–
